Data published in ChEMBL document CHEMBL1131909, “Synthesis and biological activities of position one and three transposed analogs of the opioid peptide YKFA” (Bioorg Med Chem Lett, 1999).
pIC50, pKi: −log10 of the molar value.

Legend:
Mu-type opioid receptor [1] = molecular target: T1, Mu-type opioid receptor (Cavia porcellus, UniProt P97266); assay: Compound was tested for moderate potency against mu opioid receptor in guinea pig ileum; type: tissue-based
[2] = molecular target: Delta-type opioid receptor (Mus musculus, UniProt P32300); assay: In vitro delta opioid activity was determined by its ability to inhibit the electrically induced contractions of smooth muscle preparations in mouse vas deferens (MVD); type: functional, tissue-based
Mu-type opioid receptor [3] = molecular target: T1, Mu-type opioid receptor; assay: In vitro mu opioid activity was determined by its ability to inhibit the electrically induced contractions of smooth muscle preparations in guinea pig ileum (GPI); type: functional, tissue-based
Mu-type opioid receptor [4] = molecular target: Mu-type opioid receptor (Homo sapiens, UniProt P35372); assay: Compound was tested for binding affinity against mu opioid receptor binding assay
Mu-type opioid receptor [5] = molecular target: T1, Mu-type opioid receptor; assay: Compound was tested for its ability to activate mu opioid receptor in GPI bioassay

T1 sequence (P97266 whole entry): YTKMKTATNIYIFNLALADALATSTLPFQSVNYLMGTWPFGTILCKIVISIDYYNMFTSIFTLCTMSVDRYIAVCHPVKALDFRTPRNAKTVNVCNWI
Sequence of Delta-type opioid receptor (P32300 whole entry): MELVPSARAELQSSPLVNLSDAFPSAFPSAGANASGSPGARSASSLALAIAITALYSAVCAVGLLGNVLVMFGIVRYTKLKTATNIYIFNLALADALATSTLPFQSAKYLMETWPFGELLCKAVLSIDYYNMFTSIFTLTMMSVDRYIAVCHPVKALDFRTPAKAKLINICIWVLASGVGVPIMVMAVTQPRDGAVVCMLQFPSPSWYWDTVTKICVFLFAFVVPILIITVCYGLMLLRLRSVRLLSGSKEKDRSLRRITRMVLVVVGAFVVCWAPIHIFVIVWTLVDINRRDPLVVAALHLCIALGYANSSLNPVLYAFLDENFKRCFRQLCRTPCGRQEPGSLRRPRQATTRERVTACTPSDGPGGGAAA
Sequence of Mu-type opioid receptor (Homo sapiens, UniProt P35372) (P35372 whole entry): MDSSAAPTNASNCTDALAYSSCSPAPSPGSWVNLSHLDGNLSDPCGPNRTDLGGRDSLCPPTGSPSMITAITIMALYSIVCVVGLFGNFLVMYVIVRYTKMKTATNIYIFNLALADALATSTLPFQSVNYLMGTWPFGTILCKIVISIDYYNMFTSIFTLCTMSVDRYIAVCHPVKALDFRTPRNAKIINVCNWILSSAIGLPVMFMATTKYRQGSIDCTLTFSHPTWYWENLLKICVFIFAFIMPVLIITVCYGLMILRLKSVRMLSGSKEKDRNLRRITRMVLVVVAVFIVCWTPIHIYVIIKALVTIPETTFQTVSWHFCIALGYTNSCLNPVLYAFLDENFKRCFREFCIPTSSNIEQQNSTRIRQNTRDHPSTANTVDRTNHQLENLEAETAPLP

| Compound | pIC50 [2] | pIC50 (Mu-type opioid receptor [3]) | other results |
| --- | --- | --- | --- |
| NC(=O)[C@H]1CSSC[C@@H](NC(=O)[C@@H](N)Cc2ccccc2)C(=O)NCC(=O)N[C@@H](Cc2ccc([N+](=O)[O-])cc2)C(=O)N1 | – | – | pIC50 (Mu-type opioid receptor [1]): 7.89 |
| N[C@@H](Cc1ccccc1)C(=O)N[C@@H]1CCCCNC(=O)[C@H](Cc2cc3ccccc3[nH]2)NC(=O)[C@H](Cc2ccc(O)cc2)NC1=O | 6.64 | 7.75 | – |
| N[C@H](Cc1ccccc1)C(=O)N[C@@H]1CCCCNC(=O)[C@H](Cc2cc3ccccc3[nH]2)NC(=O)[C@H](Cc2ccc(O)cc2)NC1=O | 5.09 | 6.20 | – |
| CC1(C)SSC[C@@H](NC(=O)[C@@H](N)Cc2ccccc2)C(=O)N[C@@H](Cc2ccccc2)C(=O)N[C@H]1C(N)=O | – | – | pKi (Mu-type opioid receptor [4]): 7.87; pIC50 (Mu-type opioid receptor [5]): 8.04 |
| CC1(C)SSC[C@@H](NC(=O)[C@@H](N)Cc2ccc(O)cc2)C(=O)N[C@@H](Cc2ccccc2)C(=O)N[C@H]1C(N)=O | – | – | pKi (Mu-type opioid receptor [4]): 9.54 |
| NC(=O)[C@H]1CSSC[C@@H](NC(=O)[C@@H](N)Cc2ccccc2)C(=O)NCC(=O)N[C@@H](Cc2ccccc2)C(=O)N1 | – | – | pIC50 (Mu-type opioid receptor [1]): 7.38 |
| CC1NC(=O)[C@H](Cc2ccc(O)cc2)NC(=O)[C@H](NC(=O)[C@@H](N)Cc2ccccc2)CCCCNC1=O (single isomer, unassigned) | 6.44 | 7.52 | – |
| CC1NC(=O)[C@H](Cc2ccc(O)cc2)NC(=O)[C@H](NC(=O)[C@H](N)Cc2ccccc2)CCCCNC1=O (single isomer, unassigned) | 5.03 | 5.74 | – |
| CC1NC(=O)[C@H](Cc2ccccc2)NC(=O)[C@H](NC(=O)[C@@H](N)Cc2ccc(O)cc2)CCCCNC1=O (single isomer, unassigned) | 9.27 | 9.96 | – |
